# Assay results taken from patent US7019021B2, “Compounds and methods for treating urinary incontinence” (Boehringer Ingelheim Pharma GmbH & Co. KG, priority 1995, dated 2006).
# Tested on: urethra
# Assay: Intraluminal pressure of the urethra in the anaesthetised rabbit
# Assay type: in vivo
# Details: i.v.; for Contraction of the urethra / Duration of effect (contraction of the urethra): female Japanese white rabbits, urethane anaesthesia, phenylephrine 30 μg/kg vs Example 2 10 μg/kg, phenylephrine = 100
# Procedure: Female Japanese white rabbits (weighing 3.0 to 3.5 kg) are anaesthetised with urethane (1 g/kg i.p.). A polyethylene cannula is inserted in the urinary bladder by means of a small incision. The changes in the intraluminal pressure are recorded by means of balloon in the urethra which contains about 1.5 ml of water at 37° C.
# [1] = rabbit, 10 μg/kg Example 2 vs 30 μg/kg phenylephrine, factor
SMILES,Contraction of the urethra [%],Duration of effect (contraction of the urethra) [%],"duration of effect (contraction of the urethra), longer by a factor compared with phenylephrine [1]","potency with regard to the contraction of the urethra, higher by a factor compared with phenylephrine [1]"
"Cc1c(N(C)C)ccc(Br)c1N=C1NCCN1 [Example 2, 2-(6-Bromo-3-dimethylamino-2-methylphenylimino)imidazolidine]",273,430,4.3,2.73
"CNC[C@H](O)c1cccc(O)c1 [Phenylephrine, phenylephrine]",100,100,,
